According to patent US4225607A, “Pharmaceutical composition containing a xanthine derivative” (Wulfing; Johann A., priority 1979, dated 1980):
“And” between values parts separate entries of the source, which are not always exact repeats. Equal entries are not always repeated.

Columns and labels:
[1] = Blood pressure (BP), initial decrease phase and second increase phase; format: in vivo, cat; settings: Table 3, 125 μg/kg i.v.
skeletal muscle = assay: Oxygen tension (pO2) in skeletal muscle (m. gastrocnemius), femoral artery ligation, Pt-needle electrodes; format: in vivo, cat; settings: for effect of Compound A, Δ pO2: 125 μg/kg i.v.
Method: Cats of either sex were anaesthetized with urethane/chloralose (120/60 mg/kg i.p.). In the course of the experiments, pentobarbital was injected intravenously (V. antebrachii ceph.) via a plastic tube. The intraduodenal (i.d.) application of compound was conducted by means of a plastic catheter, which was inserted into the duodenum.
pO2 was measured polarographically using Pt-needle electrodes (modified according to Baumgartl and Lubbers, 1973). The reference electrode, an Ag/AgCl system was sputtered on the glass mantle of the cathode, or it was a separate electrode. The cathode was coated with a polystyrol and a collodium membrane. A constant voltage supply provided a polarizing voltage between 600 and 800 mV. The reducing current was measured by a nano-ampere amplifying meter. The cathode was inserted in the tissue by means of a motor-driven micromanipulator.
A pO2 -electrode was inserted in the muscle tissue (m. gastrocnemius) of both hindlegs of an anaesthetized cat. After recording the pO2 of the normal perfused muscle, the blood flow to one measuring site was restricted by ligating the femoral artery. The pO2 dropped steeply and the tissue became ischaemic. After a few minutes, the pO2 increased and then decreased again. The values were constant after 30 to 60 min. After having reached a constant level of pO2, the vehicle was given, followed by the test substance.
The mean value and the standard deviation were calculated, in order to check the significance of the effect.

[2] = test system: ischaemic skeletal muscle; assay: Contractility of ischaemic skeletal (calf) muscle, direct stimulation, femoral artery graded occlusion; format: in vivo; settings: cat; for dose range of activity: contractility and pO2 of ischaemic skeletal muscle; for changes in contractility and pO2 in comparison with Compound A (in words): 5-32 mg/kg vs Compound A at 125 μg/kg
Method: Cats of either sex were anaesthetized with urethane/chloralose (120/60 mg/kg i.p.). […] The intraduodenal (i.d.) application of compound was conducted by means of a plastic catheter, which was inserted into the duodenum.
Cats of either sex were anaesthetized as for pO2 measurement. After dissection of the skin of the calf muscles, the sciatic nerve was cut about 3 cm proximal to the knee. The tendon of the calf muscles was cut and connected with an isometric force transducer (SWEMA, SG 3). In order to maintain constant differences and a resting tension of 100 p, the hind limb was fixed at the tibia by means of a clamp. Direct stimulation of the muscles consisted of square wave pulses of 4 msec duration at a frequency of 2 Hz and at a voltage of 50 V. In order to keep the muscles wet and at a normal temperature, the muscles were continuously superfused by means of a NaCl-solution (0.9%, 38° C.). Femoral blood flow was restricted by a graded occlusion of the artery leading to a reduction of contractility by ca. 30%. After having reached a constant level of the contraction force, the vehicle (NaCl and Methocel, respectively) was injected, followed by the test substance.

LD50 in mice per oral = settings: mouse, in vivo
[3] = Solubility in water / aqueous media; format: physicochemical
[4] = in vivo; cited from earlier work

Row | SMILES | t, time interval to reach initial values, second phase BP increase [1] [min] | effect of Compound A, Δ pO2 (skeletal muscle; Table 2, control hind limb, individual cats) | effect of Compound A, Δ pO2 (skeletal muscle; Table 2, hind limb with art. ligation, individual cats) | pO2 of ischaemic skeletal muscle (in words) (skeletal muscle; cat) | contractility of ischaemic skeletal muscle (in words) [2] | dose range of activity [2] [mg/kg] | LD50 (LD50 in mice per oral) [mg/kg] | solubility in aqueous media (in words) ([3]; aqueous media) | oral toxicity (in words) [4] | Mean effect of Compound B compared to Compound A (skeletal muscle; Table 2, B at 5 mg/kg vs A at 125 μg/kg, mean) [%] | effect of Compound B, Δ pO2 (skeletal muscle; Table 2, control hind limb, 5 mg/kg i.v., individual cats, 5 mg/kg) [Torr] | changes in contractility and pO2 in comparison with Compound A (in words) [2] | pO2 (increase) (skeletal muscle; Table 1, ischaemic muscle, cat, i.d., 32 mg/kg) [mmHg] | contractility (% initial value) ([2]; Table 1, ischaemic muscle, i.d., 12.5 mg/kg) | water solubility (in words) ([3]; water, reason for NT i.v.)
1 | CCCCn1c(=O)c2c(ncn2CC(C)=O)n(CCCC)c1=O [Compound A, 1,3-di-n-butyl-7-(2-oxopropyl)xanthine] | 32 | 3.8 Torr and 3.5 Torr and 3.4 Torr | 6.2 Torr and 7.3 Torr and 5.2 Torr and 5.6 Torr | distinct increase | distinct increase | 0.05 to 0.125 | > 1000 | only sparingly soluble in aqueous media | – | – | – | – | – | – | –
2 | CC(=O)CCCCn1c(=O)c2c(ncn2C)n(C)c1=O [Compound B, pentoxyphylline] | – | – | – | – | – | 5 to 32 | – | – | low oral toxicity | 21.3 | 0.3 | less pronounced in comparison with Compound A | – | – | –
3 | CCCCn1c(=O)c2c(ncn2CC(=O)CC)n(CCCC)c1=O [Compound C, 1,3-di-n-butyl-7-(2-oxobutyl)xanthine] | – | – | – | – | – | 5 to 32 | – | – | – | – | – | less pronounced in comparison with Compound A | 6 | 22 | low water solubility
